Key:
[1] = test system: endotoxin
[2] = test system: endotoxin; remark: listed apart in the source

Q: How did the “Endotoxin concentration compared to the treatments with chloramine, DBNPA and Cl-MIT alone” value [1] turn out when `O=S(=O)(O)NCl.[Na]` [Chlorosulfamic acid, sodium monochlorosulfamic acid] was run?
A: ≤ 50%

Q: What about the “Discharge amount of endotoxin compared to raw water and Control (in words)” value [2] of the same molecule?
A: suppress the discharge amount of endotoxin to be low compared to the raw water and Control

Q: `N#CC(Br)(Br)C(N)=O` [DBNPA, 2,2-dibromo-3-nitrilopropionamide, reference compound] was tested. Which Endotoxin concentration [1] did it give?
A: 19.1 EU/mL

Q: Which Endotoxin concentration [1] does the source give for Chloramine [reference compound] here?
A: 31.1 EU/mL

— US20260193116A1, “MEMBRANE TREATMENT METHOD, BIOFOULING INHIBITION METHOD, AND ENDOTOXIN PRODUCTION INHIBITION METHOD IN WATER SYSTEM” (KURITA WATER INDUSTRIES LTD., priority 2022, published 2026)
